Source: patent publication US9980943B2, “Methods of treating muscular dystrophy” (BOARD OF REGENTS OF THE NEVADA SYSTEM OF HIGHER EDUCATION, …, priority 2013, dated 2018)

Columns and labels:
Format in all cases: cell-based, mouse
[1] = tested on: β-galactosidase in CMV-LacZ C2C12 myotubes; test: CMV-LacZ secondary screen in C2C12 myotubes (β-Gal stabilizing assay); details: C2C12 CMV-LacZ myotubes, fold relative to DMSO
Method in brief: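 Dose-response runs at 0.5–40 μM (0.5, 1, 5, 10, 20, 40 μM; N=2 per point) used a clonal C2C12 line carrying CMV-LacZ. Cells were assayed as myoblasts or as differentiated myotubes, and β-galactosidase levels were read with the FDG fluorogenic substrate.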

[2] = tested on: α7 integrin (LacZ reporter in α7βgal+/− myoblasts); test: Myoblast α7+/LacZ integrin FDG assay (Burkin assay in myoblasts, 96-well); details: α7+/LacZ myoblasts, 96-well
[3] = tested on: α7 integrin (LacZ reporter in α7+/LacZ myotubes); test: Myotube α7 integrin FDG assay (Burkin assay in myotubes, 96-well); details: myotubes

| Compound | CMV-LACZ in Myotubes, signal relative to DMSO ([1]; 5 uM) | CMV-LACZ in Myotubes, signal relative to DMSO ([1]; 10 uM) | CMV-LACZ in Myotubes, signal relative to DMSO ([1]; 20 uM) | CMV-LACZ in Myotubes, signal relative to DMSO ([1]; 40 uM) | Burkin Assay in Myoblasts, signal relative to DMSO ([2]; 0.5 uM) | Burkin Assay in Myoblasts, signal relative to DMSO ([2]; 1 uM) | Burkin Assay in Myoblasts, signal relative to DMSO ([2]; 5 uM) | Burkin Assay in Myoblasts, signal relative to DMSO ([2]; 10 uM) | Burkin Assay in Myoblasts, signal relative to DMSO ([2]; 20 uM) | Burkin Assay in Myoblasts, signal relative to DMSO ([2]; 40 uM) | Burkin Assay in Myotubes, α7 integrin LacZ reporter signal relative to DMSO ([3]; 0.5 uM) | Burkin Assay in Myotubes, α7 integrin LacZ reporter signal relative to DMSO ([3]; 1 uM) | Burkin Assay in Myotubes, α7 integrin LacZ reporter signal relative to DMSO ([3]; 5 uM) | Burkin Assay in Myotubes, α7 integrin LacZ reporter signal relative to DMSO ([3]; 10 uM) | Burkin Assay in Myotubes, α7 integrin LacZ reporter signal relative to DMSO ([3]; 20 uM) | Burkin Assay in Myotubes, α7 integrin LacZ reporter signal relative to DMSO ([3]; 40 uM) | Burkin Assay in Myoblasts, value relative to DMSO ([2]; 0.5 uM) | Burkin Assay in Myoblasts, value relative to DMSO ([2]; 1 uM) | Burkin Assay in Myoblasts, value relative to DMSO ([2]; 5 uM) | Burkin Assay in Myoblasts, value relative to DMSO ([2]; 10 uM) | further results |
| --- | --- | --- | --- | --- | --- | --- | --- | --- | --- | --- | --- | --- | --- | --- | --- | --- | --- | --- | --- | --- | --- |
| COc1ccc(S(=O)(=O)N2CCCCCC2)cc1C(=O)N1CCN(c2ccccc2O)CC1 [MLS001150751-01] | 0.9134 | 0.8336 | 0.992 | 0.889 | 1.114 | 1.059 | 0.9941 | 0.9573 | 1.079 | 0.8454 | 1.0993 | 0.9504 | 1.254 | 1.023 | 1.0842 | 0.5343 | – | – | – | – | – |
| O=C(COc1cc2oc(=O)c3c(c2cc1Cl)CCCC3)NCC1CCC(C(=O)O)CC1 (stereo not shown) [MLS001157804-01] | 0.703 | 0.9842 | 1.05 | 1.07 | – | – | – | – | – | – | – | – | – | – | – | – | 0.879 | 0.9385 | 0.998 | 1.117 | Burkin Assay in Myoblasts, value relative to DMSO ([2]; 20 uM): 1.052; Burkin Assay in Myoblasts, value relative to DMSO ([2]; 40 uM): 1.104; Burkin Assay in Myotubes (signal relative to DMSO) ([3]; 0.5 uM): 1.045; Burkin Assay in Myotubes (signal relative to DMSO) ([3]; 1 uM): 1.013; Burkin Assay in Myotubes (signal relative to DMSO) ([3]; 5 uM): 1.031; Burkin Assay in Myotubes (signal relative to DMSO) ([3]; 10 uM): 1.083; Burkin Assay in Myotubes (signal relative to DMSO) ([3]; 20 uM): 1.069; Burkin Assay in Myotubes (signal relative to DMSO) ([3]; 40 uM): 1.188 |
| Cc1ccc(C(=O)C(C)OC(=O)CNC(=O)c2ccc(Br)o2)cc1 (stereo not shown) [MLS001160885-01] | 1.167 | 0.9009 | 0.9095 | 0.8319 | 1.05 | 0.9356 | 0.9402 | 0.9147 | 1.021 | 0.7914 | 1 | 0.9569 | 1.108 | 1.146 | 1.018 | 0.92 | – | – | – | – | – |
| CC(Oc1ccccc1)C(=O)N1CCN(C(=O)C(C)Oc2ccccc2)CC1 (stereo not shown) [MLS001162337-01] | 0.9904 | 0.9593 | 0.8491 | 1.05 | – | – | – | – | – | – | – | – | – | – | – | – | 1.123 | 1.127 | 1.091 | 1.071 | Burkin Assay in Myoblasts, value relative to DMSO ([2]; 20 uM): 0.8789; Burkin Assay in Myoblasts, value relative to DMSO ([2]; 40 uM): 0.8149; Burkin Assay in Myotubes (signal relative to DMSO) ([3]; 0.5 uM): 0.6986; Burkin Assay in Myotubes (signal relative to DMSO) ([3]; 1 uM): 0.885; Burkin Assay in Myotubes (signal relative to DMSO) ([3]; 5 uM): 1.009; Burkin Assay in Myotubes (signal relative to DMSO) ([3]; 10 uM): 0.9738; Burkin Assay in Myotubes (signal relative to DMSO) ([3]; 20 uM): 1.17; Burkin Assay in Myotubes (signal relative to DMSO) ([3]; 40 uM): 1.014 |
